Measured values: the supplement of paper PMC10307832

Assays:
Assay in all cases: relative viability (nuclei count vs DMSO), 5 days (fraction); higher = more cells survive
XMD13-2 + Pemetrexed = compound: C1CC1C(=O)NC2=NNC3=C2C=CC(=C3)C4=CC(=CC=C4)C(=O)NC5CC5 [XMD13-2] + Nc1nc2[nH]cc(CCc3ccc(C(=O)N[C@@H](CCC(=O)O)C(=O)O)cc3)c2c(=O)[nH]1 [Pemetrexed] (partner 0.2 µM)
How it was run: (§1)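 Lung cancer cell lines were seeded in 1536-well plates and dosed by pin tool the next day, with either a single drug or a fixed anchor-drug dose combined with five library-drug doses (not always all listed) spaced in √10 steps. Five days later, one step fixed the cells and stained their nuclei (final 0.05% Triton X-100, 1% formaldehyde, 1 ug/ml Hoechst), and nuclei were counted on 4× images. Relative viability is the nuclei count in treated wells divided by the count in vehicle wells, and each value is the median of duplicate plates.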

Dasatinib + Crizotinib = compound: Cc1nc(Nc2ncc(C(=O)Nc3c(C)cccc3Cl)s2)cc(N2CCN(CCO)CC2)n1 [Dasatinib] + C[C@@H](Oc1cc(-c2cnn(C3CCNCC3)c2)cnc1N)c1c(Cl)ccc(F)c1Cl [Crizotinib] (partner 1 µM)
How it was run: as §1

ALW-II-49-7 + Alpelisib = compound: Cc1ccc(C(=O)Nc2cccc(C(F)(F)F)c2)cc1Nc1cncc(C(N)=O)c1 [ALW-II-49-7] + Cc1nc(NC(=O)N2CCC[C@H]2C(N)=O)sc1-c1ccnc(C(C)(C)C(F)(F)F)c1 [Alpelisib] (partner 2 µM)
How it was run: as §1

XMD13-2 + Vorinostat = compound: C1CC1C(=O)NC2=NNC3=C2C=CC(=C3)C4=CC(=CC=C4)C(=O)NC5CC5 [XMD13-2] + O=C(CCCCCCC(=O)Nc1ccccc1)NO [Vorinostat] (partner 1 µM)
How it was run: as §1

Which results are given for UMC-11?
relative viability (XMD13-2 + Pemetrexed; first compound 0.05 µM): 0.914; relative viability (XMD13-2 + Pemetrexed; first compound 0.1581 µM): 0.761; relative viability (XMD13-2 + Pemetrexed; first compound 0.5 µM): 0.791; relative viability (XMD13-2 + Pemetrexed; first compound 1.581 µM): 0.845; relative viability (XMD13-2 + Pemetrexed; first compound 5 µM): 0.772; relative viability (Dasatinib + Crizotinib; first compound 0.005 µM): 0.537; relative viability (Dasatinib + Crizotinib; first compound 0.01581 µM): 0.389; relative viability (Dasatinib + Crizotinib; first compound 0.05 µM): 0.359; relative viability (Dasatinib + Crizotinib; first compound 0.1581 µM): 0.258; relative viability (Dasatinib + Crizotinib; first compound 0.5 µM): 0.242; relative viability (ALW-II-49-7 + Alpelisib; first compound 0.08 µM): 0.841; relative viability (ALW-II-49-7 + Alpelisib; first compound 0.253 µM): 1; relative viability (ALW-II-49-7 + Alpelisib; first compound 2.53 µM): 1.06; relative viability (ALW-II-49-7 + Alpelisib; first compound 8 µM): 0.971; relative viability (XMD13-2 + Vorinostat; first compound 0.05 µM): 0.356; relative viability (XMD13-2 + Vorinostat; first compound 0.1581 µM): 0.413; relative viability (XMD13-2 + Vorinostat; first compound 0.5 µM): 0.459; relative viability (XMD13-2 + Vorinostat; first compound 1.581 µM): 0.396; relative viability (XMD13-2 + Vorinostat; first compound 5 µM): 0.318
